Biological target: T1, human oxytocin receptor (Homo sapiens, UniProt P30559)
T1 construct: host or cells: CHO cells (pcDNA3.1 vector)
T1 sequence (P30559 1-389): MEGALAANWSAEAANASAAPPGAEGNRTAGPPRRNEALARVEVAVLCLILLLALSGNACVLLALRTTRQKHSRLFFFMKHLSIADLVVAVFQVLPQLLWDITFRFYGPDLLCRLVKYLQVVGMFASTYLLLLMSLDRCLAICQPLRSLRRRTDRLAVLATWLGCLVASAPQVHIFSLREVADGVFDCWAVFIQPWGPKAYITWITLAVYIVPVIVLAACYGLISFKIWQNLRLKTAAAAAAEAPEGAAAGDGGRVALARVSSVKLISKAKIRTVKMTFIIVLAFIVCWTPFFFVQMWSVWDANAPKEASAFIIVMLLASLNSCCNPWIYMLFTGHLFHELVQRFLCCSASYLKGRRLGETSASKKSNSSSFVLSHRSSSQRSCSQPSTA
Assay: Oxytocin binding in Chinese Hamster Ovary cell membranes expressing human oxytocin receptors
Details: 100 nM, CHO cell membranes, [3H]oxytocin, values without parentheses, read-out: OT % inhibition @ 100% nM

Row | SMILES | inhibition at 0.1 µM [%]
1 | COc1ccccc1-c1ccc(C(=O)N2Cc3ccc(C(=O)N[C@H]4CN5CCC4CC5)n3Cc3ccccc32)cc1OC [Example 299, N-[(3R)-1-Azabicyclo[2.2.2]oct-3-yl]-10-[(2,2′-dimethoxy[1,1′-biphenyl]-4-yl)carbonyl]-10,11-dihydro-5H-pyrrolo[2,1-c][1,4]benzodiazepine-3-carboxamide] | 86
2 | COc1ccccc1-c1ccc(C(=O)N2Cc3ccc(C(=O)N4CCN(C)CC4)n3Cc3ccccc32)cc1C [Example 49, {10-[(2′-Methoxy-2-methyl[1,1′-biphenyl]-4-yl)carbonyl]-10,11-dihydro-5H-pyrrolo[2,1-c][1,4]benzodiazepin-3-yl}(4-methyl-1-piperazinyl)methanone] | 92
3 | COc1ccccc1-c1ccc(C(=O)N2Cc3ccc(C(=O)N4CCCN(C)CC4)n3Cc3ccccc32)cc1C [Example 62, {10-[(2′-Methoxy-2-methyl[1,1′-biphenyl]-4-yl)carbonyl]-10,11-dihydro-5H-pyrrolo[2,1-c][1,4]benzodiazepin-3-yl}(4-methyl-1,4-diazepan-1-yl)methanone] | 91
4 | COc1ccccc1-c1ccc(C(=O)N2Cc3ccc(C(=O)N[C@@H]4CN5CCC4CC5)n3Cc3ccccc32)cc1OC [Example 300, N-[(3S)-1-Azabicyclo[2.2.2]oct-3-yl]-10-[(2,2′-dimethoxy[1,1′-biphenyl]-4-yl)carbonyl]-10,11-dihydro-5H-pyrrolo[2,1-c][1,4]benzodiazepine-3-carboxamide] | 72
5 | COc1cc(-c2ccccc2C)c(Cl)cc1C(=O)N1Cc2ccc(C(=O)N[C@@H]3CN4CCC3CC4)n2Cc2ccccc21 [Example 297, N-[(3S)-1-Azabicyclo[2.2.2]oct-3-yl]-10-[(6-chloro-3-methoxy-2′-methyl-[1,1′-biphenyl]-4-yl)carbonyl]-10,11-dihydro-5H-pyrrolo[2,1-c][1,4]benzodiazepine-3-carboxamide] | 73
6 | O=C(c1ccc(-c2ccccc2)nc1)N1Cc2cccn2Cc2ccccc21 [Example 29, (6-Phenyl-pyridin-3-yl)-[10,11-dihydro-5H-pyrrolo[2,1-c][1,4]benzodiazepin-10-yl]methanone] | 51
7 | COc1cccc(-c2ccc(C(=O)N3Cc4ccc(C(=O)N5CCN(C)CC5)n4Cc4ccccc43)cc2OC)c1 [Example 57, {10-[(2,3′-Dimethoxy[1,1′-biphenyl]-4-yl)carbonyl]-10,11-dihydro-5H-pyrrolo[2,1-c][1,4]benzodiazepin-3-yl}(4-methyl-1-piperazinyl)methanone] | 76
8 | COc1cc(C(=O)N2Cc3ccc(C(=O)NCCCN(C)C)n3Cc3ccccc32)ccc1-c1ccccc1C [Example 77, N-[3-(Dimethylamino)propyl]-10-[(2-methoxy-2′-methyl[1,1′-biphenyl]-4-yl)carbonyl]-10,11-dihydro-5H-pyrrolo[2,1-c][1,4]benzodiazepine-3-carboxamide] | 65
9 | Cc1cc(C(=O)N2Cc3ccc(C(=O)N[C@H]4CN5CCC4CC5)n3Cc3ccccc32)ccc1-c1ccccc1C(F)(F)F [Example 301, N-[(3R)-1-Azabicyclo[2.2.2]oct-3-yl]-10-{[2-methyl-2′-(trifluoromethyl)[1,1′-biphenyl]-4-yl]carbonyl}-10,11-dihydro-5H-pyrrolo[2,1-c][1,4]benzodiazepine-3-carboxamide] | 82

Other lines, results leading:

Row | inhibition at 0.1 µM [%] | SMILES
10 | 24 | COc1cc(C(=O)N2Cc3ccc(C(=O)N4CCN(CCN(C)C)CC4)n3Cc3ccccc32)ccc1-n1c(C)ccc1C [Example 316, {4-[2-(Dimethylamino)ethyl]-1-piperazinyl}{10-[4-(2,5-dimethyl-1H-pyrrol-1-yl)-3-methoxybenzoyl]-10,11-dihydro-5H-pyrrolo[2,1-c][1,4]benzodiazepin-3-yl}methanone]
11 | 22 | COc1cc(C(=O)N2Cc3ccc(C(=O)N4CCN(C(C)C)CC4)n3Cc3ccccc32)ccc1-n1c(C)ccc1C [Example 319, {10-[4-(2,5-Dimethyl-1H-pyrrol-1-yl)-3-methoxybenzoyl]-10,11-dihydro-5H-pyrrolo[2,1-c][1,4]benzodiazepin-3-yl}(4-isopropyl-1-piperazinyl)methanone]
12 | 64 | COc1cccc(-c2cc(OC)c(C(=O)N3Cc4ccc(C(=O)N[C@@H](CCCCNC(=O)OC(C)(C)C)C(N)=O)n4Cc4ccccc43)cc2Cl)c1 [Example 302, tert-Butyl (5S)-6-amino-5-[({10-[(6-chloro-3,3′-dimethoxy[1,1′-biphenyl]-4-yl)carbonyl]-10,11-dihydro-5H-pyrrolo[2,1-c][1,4]benzodiazepin-3-yl}carbonyl)amino]-6-oxohexylcarbamate]
13 | 10 | COc1cc(C(=O)N2Cc3ccc(C(=O)NCCC4CCCN4C)n3Cc3ccccc32)ccc1-n1c(C)ccc1C (stereo not shown) [Example 315, 10-[4-(2,5-Dimethyl-1H-pyrrol-1-yl)-3-methoxybenzoyl]-N-[2-(1-methyl-2-pyrrolidinyl)ethyl]-10,11-dihydro-5H-pyrrolo[2,1-c][1,4]benzodiazepine-3-carboxamide]
14 | 18 | Cc1ccccc1-c1ccc(C(=O)N2Cc3ccc(C(=O)N4CCN(CCCN(C)C)CC4)n3Cc3ccccc32)cc1 [Example 249, {4-[3-(Dimethylamino)propyl]-1-piperazinyl}{10-[(2′-methyl[1,1′-biphenyl]-4-yl)carbonyl]-10,11-dihydro-5H-pyrrolo[2,1-c][1,4]benzodiazepin-3-yl}methanone]
15 | 54 | Cc1cc(C(=O)N2Cc3ccc(C(=O)n4ccnc4)n3Cc3ccccc32)ccc1-c1ccccc1C(F)(F)F [Example 294, 1H-Imidazol-1-yl(10-{[2-methyl-2′-(trifluoromethyl)[1,1′-biphenyl]-4-yl]carbonyl}-10,11-dihydro-5H-pyrrolo[2,1-c][1,4]benzodiazepin-3-yl)methanone]
16 | 33 | Cc1cc(C(=O)N2Cc3cccn3Cc3ncccc32)ccc1-c1ccccc1C(F)(F)F [Example 323F, (2-Methyl-2′-trifluoromethyl-[1,1′-biphenyl]-4-yl)-(4H,10H-3a,5,9-triaza-benzo[f]azulen-9-yl)-methanone]
17 | 72 | COc1cccc(-c2cc(OC)c(C(=O)N3Cc4ccc(C(=O)N5CCN(CCCN(C)C)CC5)n4Cc4ccccc43)cc2Cl)c1 [Example 252, {10-[(6-Chloro-3,3′-dimethoxy[1,1′-biphenyl]-4-yl)carbonyl]-10,11-dihydro-5H-pyrrolo[2,1-c][1,4]benzodiazepin-3-yl}{4-[3-(dimethylamino)propyl]-1-piperazinyl}methanone]
18 | 53 | COc1ccccc1-c1ccc(C(=O)N2Cc3ccc(C(=O)n4ccnc4)n3Cc3ccccc32)cc1OC [Example 293, {10-[(2,2′-Dimethoxy[1,1′-biphenyl]-4-yl)carbonyl]-10,11-dihydro-5H-pyrrolo[2,1-c][1,4]benzodiazepin-3-yl}(1H-imidazol-1-yl)methanone]
19 | 17 | CC(C)N1CCN(C(=O)c2ccc3n2Cc2ccccc2N(C(=O)c2ccc(-c4cccc5ccccc45)cc2Cl)C3)CC1 [Example 243, {10-[2-Chloro-4-(1-naphthyl)benzoyl]-10,11-dihydro-5H-pyrrolo[2,1-c][1,4]benzodiazepin-3-yl}(4-isopropyl-1-piperazinyl)methanone]
